“Also recorded” adds a separate entry of the source.
What was measured:
K. pneumoniae = assay: Activity on TSA plates (FIG. 16); format: cell-based; conditions: 20 mg/ml and 10 mg/ml on TSA plates
Procedure: FIG. 16 depicts activity of HBCA2 peptide against K. pneumoniae at 20 mg/ml and 10 mg/ml on TSA plates.

[1] = tested on: indicated bacterial pathogens; assay: Direct kill assay; format: cell-based; conditions: 50 mg/ml
Procedure: (§1) All three peptides were tested using direct kills assays. Equal inoculums of indicated bacterial pathogens were incubated either with water (−) or 50 mg/ml of HBCA1, HBCA2 or HBCA2.C. Aliquots were spotted at T=0 min (start of incubation) and at 30 minutes post incubation (T=30 min) on LB-agar plates, and incubated at 37° C. overnight to see growth.

P. aeruginosa = assay: Direct kill assay; format: cell-based
Procedure: as §1

Porphyromonas gingivalis = assay: Kill assay on TSA plates (5% difibrinated blood); format: cell-based
Source text: Porphyromonas gingivalis (a keystone pathogen in chronic periodontitis, and identified in the brains of Alzheimer's patients) is sensitive to HBCA1 and HBCA2 peptides.

[2] = tested on: above-mentioned bacterial strains; assay: Spot assays on bacterial lawns and direct kill assays of synthetic peptides; format: cell-based
Procedure: The fractions were dried and reconstituted in water and spotted onto Tryptic soy agar plates that were spread with 100 μL of select bacterial grown overnight in tryptic soy broth.
We have named them HBCA1 and HBCA2.
as §1

K. pneunomiae = assay: Killing of pathogenic bacteria; format: cell-based, K. pneumoniae
Procedure: as §1

[3] = tested on: commensal Lactobacillus strains; assay: Activity against commensal strains; format: cell-based; conditions: strains commonly found in infant and adult gut
G. vaginalis = assay: Direct kill assay on HBT bilayer Gardnerella media; format: cell-based, Gardnerella vaginalis
Procedure: When we subjected G. vaginalis to direct kill assays using HBCA1 and HBCA2, we observed that both peptides render G. vaginalis non-viable within 30 minutes, as indicated by loss of bacterial growth on HBT bilayer Gardnerella media (FIG. 9).

[4] = tested on: commensal Bifidobacterium strains; assay: Activity against commensal strains; format: cell-based; conditions: strains commonly found in infant and adult gut
E. coli (EHEC) = assay: Killing of pathogenic bacteria; format: cell-based
Procedure: as §1

E. faecalis = assay: Killing of pathogenic bacteria; format: cell-based
Procedure: as §1

S. aureus (MRSA) = assay: Killing of pathogenic bacteria; format: cell-based
Procedure: as §1

L. monocytogenes = assay: Killing of pathogenic bacteria; format: cell-based
Procedure: as §1

S. enteritidis = assay: Killing of pathogenic bacteria; format: cell-based
Procedure: as §1

Sequence: RVRPKLKSPRIP [HBCA2.4]
- relative potency against K. pneumoniae (K. pneumoniae): most potent of the HBCA peptides

Sequence: RVMPVLKSPTIP (listed as Homo sapiens) [HBCA2]
- relative activity of the peptides in direct kill assays [1]: more potent in its activity than the larger HBCA1 peptide
- killing of P. aeruginosa (P. aeruginosa): kills
- loss of viability of P. aeruginosa (P. aeruginosa; 50 mg/ml, T=0 min): rapidly lost (while mixing at T0)
- killing of Porphyromonas gingivalis (Porphyromonas gingivalis): kills
- sensitivity of P. gingivalis (Porphyromonas gingivalis): sensitive
- speed of loss of viability of P. gingivalis (Porphyromonas gingivalis; upon mixing cells with peptide): rapid killing; also recorded: rapidly lose viability right at 0 minutes
- antibacterial activity [2]: showed antibacterial activity
- killing / viability of K. pneumoniae (K. pneunomiae): kills
- activity against commensal Lactobacillus strains [3]: no detected activity
- killing of Gardnerella vaginalis (G. vaginalis): kills
- activity against commensal Bifidobacterium strains [4]: no detected activity
- killing of E. coli (EHEC) (E. coli (EHEC)): kills
- killing of E. faecalis (E. faecalis): kills
- killing of S. aureus (MRSA) (S. aureus (MRSA)): kills
- killing of L. monocytogenes (L. monocytogenes): kills
- killing of S. enteritidis (S. enteritidis): kills

Sequence: TVYTKGRVMPVLKSPTIPFFDPQI (listed as Homo sapiens) [HBCA1]
- sensitivity of P. gingivalis (Porphyromonas gingivalis): sensitive
- antibacterial activity [2]: showed antibacterial activity

— patent US20240010693A1, “PEPTIDES FROM HUMAN B-CASEIN THAT HAVE ANTI-BACTERIAL ACTIVITY” (priority 2020, published 2024)
